Consider 21 molecules from patent US11332485B2, “Penicillin-binding protein inhibitors” (priority 2017, dated 2022).

The subject of assay [1] is S. aureus ATCC 29213. In words: Broth microdilution MIC assay. The note with it: Staphylococcus aureus, ATCC29213; broth microdilution, 16-20 hours at 37° C.; read-out: S. aureus 29213 MIC. The assay is classed as cell-based. The procedure: (§1) To determine the ability of test compounds to potentiate the inhibition of the growth of bacterial strains, classic cell based broth microdilution MIC assays were employed. MIC assays are performed according to CLSI methods except where otherwise noted (CLSI, 2011 and CLSI, 2009). The reference strain S. aureus ATCC 29213 and the hyper-permeable E. coli 901C were used to determine the ability of the PBP compounds to inhibit bacterial growth. Briefly, cryo-preserved bacterial cultures of clinical strains are streaked for isolation on appropriate agar medium, in this case Mueller Hinton II agar. Following incubation to allow formation of colonies these plates are sealed with parafilm and stored refrigerated for up to two weeks. For preparation of assay inocula and to ensure low variability, at least 5 colonies are picked from the agar plates with an inoculating loop and aseptically transferred to a culture tube containing 3 mL of Mueller-Hinton Broth (supplemented with divalent cations to required levels based on Manufacturers' certification). The broth culture is grown for 3-5 hours at 37° C. with shaking at 200 rpm. Meanwhile, 2-fold serial dilutions of test compounds are conducted in a 96 well plate with a final volume of 75 μL per well at 2-fold the final desired concentration. After the dilution plates are set up the growing cultures are then diluted in a cuvette containing MH II broth and the optical density is measured at 600 nm. Inocula are diluted such that 75 μL of this culture in Mueller-Hinton Broth results in a starting bacterial concentration of 5×10^5 CFU/mL when added to the dilution plates. The plates are incubated 16-20 hours at 37° C. The MIC is read visually as the lowest concentration well with no bacterial growth.
(In general: In broth dilution the organism is exposed to a series of concentrations in liquid medium.)

In assay [2] the test system is hyper-permeable E. coli 901C. In words: Broth microdilution MIC assay. The format is cell-based. The conditions noted are these: Escherichia coli, read-out: E. coli 901C MIC. The method, then: as §1
Assay [3] relates to E. coli DH5α/pLBII. In words: Broth microdilution MIC assay, empty vector control strain. The assay is classed as cell-based. The note with it: Escherichia coli, read-out: E. coli DH5α/pLBII Microbiological Activity (MIC). The procedure: as §1
(§2) To determine if test compounds were affected by CTX-M15, the most abundant extended spectrum β-lactamase in clinical settings worldwide, the inhibition of the growth of an engineered strain of Escherichia coli harboring CTX-M15 was tested. This strain was constructed by cloning the gene encoding CTX-M15 into the NdeI and BamHI restriction endonuclease sites of plasmid pLBII, placing the gene(s) under the control of the Lac promoter. The constructed expression plasmid for CTX-M15 was used to transform competent E. coli DH5a cells to make the engineered strain, including an empty pLBII vector control strain. The classic cell based broth microdilution MIC assay was employed as described above with the addition of control antibiotics, known to be degraded by β-lactamases (Ceftazidime, piperacillin and piperacillin+tazobactam).

Assay [4] deals with E. coli DH5α/pLBII-CTX-M15. In words: Broth microdilution MIC assay, engineered strain producing CTX-M15. The format is cell-based, Escherichia coli. The note with it: for MIC: Escherichia coli, read-out: E. coli DH5α/pLBII-CTX-M15 Microbiological Activity (MIC); for MIC in the CTX-M15 producer compared with the parent strain with the empty pLBII plasmid: comparison in words. The procedure:
as §1, §2

`CCN1CCN(C(=O)N[C@@H](C(=O)N[C@H]2Cc3cccc(C(=O)O)c3OB2O)C(O)c2ccccc2)C(=O)C1=O` (single isomer, unassigned) [Example 80]: the MIC was 64 to 128 µg/mL in assay [1] and below 64 µg/mL in assay [2].

Take `CCN1CCN(C(=O)N[C@H](C(=O)N[C@H]2Cc3cccc(C(=O)O)c3OB2O)C(O)c2ccccc2)C(=O)C1=O` (single isomer, unassigned) [Example 81]: the MIC in assay [1] and in assay [2] was above 128 µg/mL throughout.

Regarding `CCC(O)[C@H](NC(=O)N1CCN(CC)C(=O)C1=O)C(=O)N[C@H]1Cc2cccc(C(=O)O)c2OB1O` (single isomer, unassigned) [Example 83], the MIC was above 128 µg/mL in assay [1], 64 to 128 µg/mL in assay [2], 128 to 256 µg/mL in assay [3] and 128 to 256 µg/mL in assay [4].

For `N[C@H](Cc1ccccc1)C(=O)N[C@H]1Cc2cccc(C(=O)O)c2OB1O` [Example 1, (R)-3-((R)-2-amino-3-phenylpropanamido)-2-hydroxy-3,4-dihydro-2H-benzo[e][1,2]oxaborinine-8-carboxylic acid], the MIC in assay [1] was above 128 µg/mL; in assay [2] it was above 128 µg/mL; in assay [3] it was above 512 µg/mL; in assay [4] it was above 512 µg/mL.

With `N[C@@H](C(=O)N[C@H]1Cc2cccc(C(=O)O)c2OB1O)c1ccccc1` [Example 2, (R)-3-((R)-2-amino-2-phenylacetamido)-2-hydroxy-3,4-dihydro-2H-benzo[e][1,2]oxaborinine-8-carboxylic acid], the MIC is above 128 µg/mL in assay [1], above 128 µg/mL in assay [2], above 512 µg/mL in assay [3] and above 512 µg/mL in assay [4].

For the molecule `COc1ccc([C@@H](N)C(=O)N[C@H]2Cc3cccc(C(=O)O)c3OB2O)cc1` [Example 4, (R)-3-((R)-2-amino-2-(4-methoxyphenyl)acetamido)-2-hydroxy-3,4-dihydro-2H-benzo[e][1,2]oxaborinine-8-carboxylic acid], the MIC is above 128 µg/mL in assay [1], above 128 µg/mL in assay [2], above 512 µg/mL in assay [3] and above 512 µg/mL in assay [4].

For the molecule `COc1ccc([C@H](N)C(=O)N[C@H]2Cc3cccc(C(=O)O)c3OB2O)cc1` [Example 5, (R)-3-((S)-2-amino-2-(4-methoxyphenyl)acetamido)-2-hydroxy-3,4-dihydro-2H-benzo[e][1,2]oxaborinine-8-carboxylic acid], the MIC is 64 to 128 µg/mL in assay [1], above 128 µg/mL in assay [2], above 512 µg/mL in assay [3] and above 512 µg/mL in assay [4].

On to `N[C@@H](C(=O)N[C@H]1Cc2cccc(C(=O)O)c2OB1O)c1ccc(O)cc1` [Example 6, (R)-3-((R)-2-amino-2-(4-hydroxyphenyl)acetamido)-2-hydroxy-3,4-dihydro-2H-benzo[e][1,2]oxaborinine-8-carboxylic acid], for which the MIC in assay [1] was above 128 µg/mL; in assay [2], above 128 µg/mL; in assay [3], above 512 µg/mL; in assay [4], above 512 µg/mL.

With `N[C@H](C(=O)N[C@H]1Cc2cccc(C(=O)O)c2OB1O)c1ccc(O)cc1` [Example 7, (R)-3-((S)-2-amino-2-(4-hydroxyphenyl)acetamido)-2-hydroxy-3,4-dihydro-2H-benzo[e][1,2]oxaborinine-8-carboxylic acid], the MIC was 64 to 128 µg/mL in assay [1], above 128 µg/mL in assay [2], 128 to 256 µg/mL in assay [3] and 128 to 256 µg/mL in assay [4].

Take `Nc1nc(C(NCC(=O)O)C(=O)N[C@H]2Cc3cccc(C(=O)O)c3OB2O)cs1` (stereo partly drawn) [Example 10, (3R)-3-(2-(2-aminothiazol-4-yl)-2-((carboxymethyl)amino)acetamido)-2-hydroxy-3,4-dihydro-2H-benzo[e][1,2]oxaborinine-8-carboxylic acid]: the MIC in assay [1] was above 128 µg/mL.

As for `CS(=O)(=O)N1CCC(C(=O)NC(C(=O)N[C@H]2Cc3cccc(C(=O)O)c3OB2O)c2csc(N)n2)CC1` (stereo partly drawn) [Example 70, (3R)-3-(2-(2-aminothiazol-4-yl)-2-(1-(methylsulfonyl)piperidine-4-carboxamido)acetamido)-2-hydroxy-3,4-dihydro-2H-benzo[e][1,2]oxaborinine-8-carboxylic acid], the MIC is above 128 µg/mL in assay [1] and below 64 µg/mL in assay [2].

For the molecule `CC(=O)N1CCN(C(=O)NC(C(=O)N[C@H]2Cc3cccc(C(=O)O)c3OB2O)c2csc(N)n2)C1=O` (stereo partly drawn) [Example 71, (3R)-3-(2-(3-acetyl-2-oxoimidazolidine-1-carboxamido)-2-(2-aminothiazol-4-yl)acetamido)-2-hydroxy-3,4-dihydro-2H-benzo[e][1,2]oxaborinine-8-carboxylic acid], the results for the MIC in assay [1] and in assay [2] were 64 to 128 µg/mL and below 64 µg/mL, respectively.

In the case of `NCC1CCN(C(=O)NC(C(=O)N[C@H]2Cc3cccc(C(=O)O)c3OB2O)c2csc(N)n2)CC1` (stereo partly drawn) [Example 75, (3R)-3-(2-(4-(aminomethyl)piperidine-1-carboxamido)-2-(2-aminothiazol-4-yl)acetamido)-2-hydroxy-3,4-dihydro-2H-benzo[e][1,2]oxaborinine-8-carboxylic acid], the results for the MIC in assay [1] and in assay [2] were above 128 µg/mL and below 64 µg/mL, respectively.

With `NCC1CCCN(C(=O)NC(C(=O)N[C@H]2Cc3cccc(C(=O)O)c3OB2O)c2csc(N)n2)C1` (stereo partly drawn) [Example 76, (3R)-3-(2-(3-(aminomethyl)piperidine-1-carboxamido)-2-(2-aminothiazol-4-yl)acetamido)-2-hydroxy-3,4-dihydro-2H-benzo[e][1,2]oxaborinine-8-carboxylic acid], the MIC is above 128 µg/mL in assay [1] and 64 to 128 µg/mL in assay [2].

Take `CCN1CCN(C(=O)NC(C(=O)N[C@H]2Cc3cccc(C(=O)O)c3OB2O)C(C)c2ccccc2)C(=O)C1=O` (stereo partly drawn) [Example 84, (3R)-3-(2-(4-ethyl-2,3-dioxopiperazine-1-carboxamido)-3-phenylbutanamido)-2-hydroxy-3,4-dihydro-2H-benzo[e][1,2]oxaborinine-8-carboxylic acid]: the values for the MIC in assay [1], in assay [2] and in assay [4] were 64 to 128 µg/mL, below 64 µg/mL and 128 to 256 µg/mL, respectively.

Regarding `Nc1nc(C(NC(=O)NCCC(=O)O)C(=O)N[C@H]2Cc3cccc(C(=O)O)c3OB2O)cs1` (stereo partly drawn) [Example 87, (3R)-3-(2-(2-aminothiazol-4-yl)-2-(3-(2-carboxyethyl)ureido)acetamido)-2-hydroxy-3,4-dihydro-2H-benzo[e][1,2]oxaborinine-8-carboxylic acid], the MIC is above 128 µg/mL in assay [1], 64 to 128 µg/mL in assay [2] and 128 to 256 µg/mL in assay [4].

`COC(=O)CCNC(=O)NC(C(=O)N[C@H]1Cc2cccc(C(=O)O)c2OB1O)c1csc(N)n1` (stereo partly drawn) [Example 88, (3R)-3-(2-(2-aminothiazol-4-yl)-2-(3-(3-methoxy-3-oxopropyl)ureido)acetamido)-2-hydroxy-3,4-dihydro-2H-benzo[e][1,2]oxaborinine-8-carboxylic acid]: the MIC was above 128 µg/mL in assay [1], below 64 µg/mL in assay [2] and 128 to 256 µg/mL in assay [4].

With `Nc1nc(C(NC(=O)CCB(O)O)C(=O)N[C@H]2Cc3cccc(C(=O)O)c3OB2O)cs1` (stereo partly drawn) [Example 89, (3R)-3-(2-(2-aminothiazol-4-yl)-2-(3-boronopropanamido)acetamido)-2-hydroxy-3,4-dihydro-2H-benzo[e][1,2]oxaborinine-8-carboxylic acid], the MIC is above 128 µg/mL in assay [1], above 128 µg/mL in assay [2] and 128 to 256 µg/mL in assay [4].

Consider `Nc1nc(C(NC(=O)NCC(=O)O)C(=O)N[C@H]2Cc3cccc(C(=O)O)c3OB2O)cs1` (stereo partly drawn) [Example 90, (3R)-3-(2-(2-aminothiazol-4-yl)-2-(3-(carboxymethyl)ureido)acetamido)-2-hydroxy-3,4-dihydro-2H-benzo[e][1,2]oxaborinine-8-carboxylic acid], for which the results for the MIC in assay [1], in assay [2] and in assay [4] were above 128 µg/mL, below 64 µg/mL and 128 to 256 µg/mL, respectively.

For the molecule `CC(C)(O/N=C(\C(=O)N[C@@H]1C(=O)N2C(C(=O)[O-])=C(C[n+]3ccccc3)CS[C@H]12)c1csc(N)n1)C(=O)O` [ceftazidime, reference compound], the MIC in assay [3] is below 1 µg/mL. In assay [4], the MIC fell in the range of 8 to 16 µg/mL and the “MIC in the CTX-M15 producer compared with the parent strain with the empty pLBII plasmid” value is on record as “weaker MICs”.

`CCN1CCN(C(=O)N[C@@H](C(=O)N[C@@H]2C(=O)N3[C@@H]2SC(C)(C)[C@@H]3C(=O)O)c2ccccc2)C(=O)C1=O` [piperacillin, reference compound]: the MIC is below 1 µg/mL in assay [3] and 128 to 256 µg/mL in assay [4]. In addition, the “MIC in the CTX-M15 producer compared with the parent strain with the empty pLBII plasmid” value in assay [4] was “weaker MICs”.
